From paper PMC4862738 (Biomacromolecules, 2016)

Target: wt-PhaCCs (Chromobacterium sp. USM2, UniProt E1APK1)
Assay: continuous DTNB assay of CoA release, […] nm
Assay type: biochemical
Conditions: KPi 100 mM pH 7.8, 30 °C, BSA 0.2 mg/mL, DTNB 0.3 mM, Triton X-100 50 mg/L

## C[C@@H](O)CC(=O)SCCNC(=O)CCNC(=O)[C@H](O)C(C)(C)COP(=O)(O)OP(=O)(O)OC[C@H]1O[C@@H](n2cnc3c(N)ncnc32)[C@H](O)[C@@H]1OP(=O)(O)O [1a, HBCoA]
  continuous DTNB assay of CoA release, 412 nm: addition of BSA would increase SA of PhaCCs with HBCoA
